Assay: mn = molality of the nth substance listed, in mol/kg
Conditions: Liquid, Vibrating tube method

[Br-].[Br-].[Zn+2] [zinc bromide] + CCO
Conditions	mass density [kg/m3]
293.13 K, 1123 kPa, m1 = 0.4384	858.07
293.13 K, 1223 kPa, m1 = 0.9305	929.75
293.13 K, 5128 kPa, m1 = 0.4384	861.43
293.13 K, 9704 kPa, m1 = 0.4384	865.15
293.13 K, 9924 kPa, m1 = 0.9305	937.03
293.14 K, 1141 kPa, m1 = 1.887	1060.17
293.14 K, 4877 kPa, m1 = 0.9305	932.86
293.14 K, 5033 kPa, m1 = 1.887	1063.5
293.14 K, 5064 kPa, m1 = 0.3043	841.35
293.14 K, 9847 kPa, m1 = 1.887	1067.49
293.14 K, 10023 kPa, m1 = 0.05681	807.27
293.14 K, 14682 kPa, m1 = 0.4384	869.05
293.14 K, 14840 kPa, m1 = 0.9305	940.94
293.14 K, 14855 kPa, m1 = 1.887	1071.5
293.14 K, 20011 kPa, m1 = 0.9305	944.89
293.14 K, 30124 kPa, m1 = 0.3043	860.11
293.14 K, 34814 kPa, m1 = 0.9305	955.31
293.14 K, 39888 kPa, m1 = 0.9305	958.57
293.14 K, 39952 kPa, m1 = 0.05681	828.27
293.15 K, 1045 kPa, m1 = 0.3043	838
293.15 K, 1235 kPa, m1 = 0.05681	800.05
293.15 K, 1523 kPa, m1 = 1.49	1007.63
293.15 K, 5024 kPa, m1 = 0.05681	803.22
293.15 K, 5032 kPa, m1 = 1.49	1010.62
293.15 K, 10123 kPa, m1 = 0.3043	845.43
293.15 K, 10214 kPa, m1 = 1.49	1014.92
293.15 K, 15624 kPa, m1 = 0.05681	811.63
293.15 K, 15624 kPa, m1 = 1.49	1019.23
293.15 K, 19877 kPa, m1 = 0.4384	872.96
293.15 K, 19914 kPa, m1 = 1.887	1075.41
293.15 K, 20035 kPa, m1 = 1.49	1022.63
293.15 K, 20124 kPa, m1 = 0.3043	853.06
293.15 K, 24809 kPa, m1 = 0.4384	876.51
293.15 K, 25007 kPa, m1 = 0.9305	948.56
293.15 K, 25014 kPa, m1 = 1.49	1026.32
293.15 K, 25232 kPa, m1 = 1.887	1079.35
293.15 K, 25412 kPa, m1 = 0.05681	818.77
293.15 K, 29867 kPa, m1 = 0.4384	880
293.15 K, 29915 kPa, m1 = 0.9305	952.01
293.15 K, 29924 kPa, m1 = 1.49	1029.82
293.15 K, 29995 kPa, m1 = 1.887	1082.75
293.15 K, 34624 kPa, m1 = 1.49	1033.04
293.15 K, 34775 kPa, m1 = 0.4384	883.24
293.15 K, 35015 kPa, m1 = 0.05681	825.19
293.15 K, 35078 kPa, m1 = 1.887	1086.23
293.15 K, 35624 kPa, m1 = 0.3043	863.74
293.15 K, 39932 kPa, m1 = 1.49	1036.53
293.16 K, 1293 kPa, m1 = 0.1696	817.98
293.16 K, 5239 kPa, m1 = 0.1696	821.27
293.16 K, 9897 kPa, m1 = 0.1696	825.03
293.16 K, 14684 kPa, m1 = 0.1696	828.75
293.16 K, 15201 kPa, m1 = 0.3043	849.37
293.16 K, 19951 kPa, m1 = 0.1696	832.68
293.16 K, 20035 kPa, m1 = 0.05681	814.92
293.16 K, 30348 kPa, m1 = 0.1696	839.91
293.16 K, 35296 kPa, m1 = 0.1696	843.12
293.16 K, 39385 kPa, m1 = 0.4384	886.15
293.16 K, 39747 kPa, m1 = 1.887	1089.29
293.16 K, 39967 kPa, m1 = 0.1696	846
293.16 K, 39985 kPa, m1 = 0.3043	866.49
293.17 K, 24971 kPa, m1 = 0.1696	836.26
293.17 K, 25845 kPa, m1 = 0.3043	857.16
293.17 K, 30025 kPa, m1 = 0.05681	821.93
298.14 K, 5021 kPa, m1 = 0.9305	928.53
298.14 K, 5024 kPa, m1 = 0.4384	857.08
298.14 K, 5036 kPa, m1 = 0.05681	799.14
298.14 K, 5036 kPa, m1 = 0.1696	816.98
298.14 K, 15024 kPa, m1 = 1.887	1066.84
298.14 K, 15106 kPa, m1 = 0.4384	865.31
298.14 K, 20014 kPa, m1 = 0.3043	849.06
298.14 K, 25032 kPa, m1 = 0.9305	944.53
298.14 K, 25035 kPa, m1 = 0.4384	872.78
298.14 K, 35024 kPa, m1 = 0.05681	821.61
298.14 K, 39921 kPa, m1 = 0.05681	824.72
298.15 K, 1024 kPa, m1 = 0.9305	925.02
298.15 K, 1024 kPa, m1 = 1.887	1055.01
298.15 K, 1025 kPa, m1 = 0.4384	853.63
298.15 K, 1201 kPa, m1 = 0.1696	813.7
298.15 K, 1324 kPa, m1 = 0.05681	795.94
298.15 K, 1324 kPa, m1 = 1.49	1002.7
298.15 K, 1542 kPa, m1 = 0.3043	834.12
298.15 K, 5214 kPa, m1 = 1.49	1006.13
298.15 K, 10024 kPa, m1 = 0.4384	861.25
298.15 K, 10025 kPa, m1 = 0.05681	803.29
298.15 K, 10025 kPa, m1 = 0.1696	821.11
298.15 K, 10025 kPa, m1 = 0.3043	841.24
298.15 K, 10032 kPa, m1 = 0.9305	932.79
298.15 K, 10035 kPa, m1 = 1.49	1010.24
298.15 K, 10035 kPa, m1 = 1.887	1062.75
298.15 K, 15621 kPa, m1 = 1.49	1014.82
298.15 K, 19956 kPa, m1 = 0.05681	811.06
298.15 K, 20004 kPa, m1 = 0.9305	940.76
298.15 K, 20014 kPa, m1 = 0.1696	828.87
298.15 K, 20031 kPa, m1 = 1.887	1070.82
298.15 K, 20035 kPa, m1 = 1.49	1018.3
298.15 K, 25621 kPa, m1 = 0.3043	853.17
298.15 K, 25621 kPa, m1 = 1.49	1022.52
298.15 K, 29914 kPa, m1 = 0.05681	818.2
298.15 K, 29942 kPa, m1 = 1.887	1078.29
298.15 K, 29954 kPa, m1 = 1.49	1025.66
298.15 K, 29986 kPa, m1 = 0.1696	835.96
298.15 K, 30041 kPa, m1 = 0.4384	876.29
298.15 K, 30065 kPa, m1 = 0.9305	948.14
298.15 K, 34625 kPa, m1 = 1.49	1028.92
298.15 K, 34985 kPa, m1 = 0.3043	859.62
298.15 K, 35104 kPa, m1 = 0.4384	879.69
298.15 K, 39924 kPa, m1 = 1.49	1032.44
298.15 K, 39974 kPa, m1 = 1.887	1085.32
298.15 K, 39985 kPa, m1 = 0.4384	882.8
298.15 K, 39985 kPa, m1 = 0.9305	954.77

Source: the NIST ThermoML archive (doi:10.1016/j.jct.2009.05.004)
